Consider two molecules from patent publication US20220079962A1, “NUTRITIONAL COMPOSITION COMPRISING 2'FUCOSYLLACTOSE AND DIETARY BUTYRATE” (N.V. Nutricia, priority 2019, published 2022).

Assay [1] relates to Salmonella enteriditis S29. Nature of the assay: Fecal slurry fermentation spiked with pathogens, Salmonella growth. As for the experimental part:
In addition the test legs were supplemented with Clostridium difficile C153 (difficile agar), Salmonella enteriditis S29 (XLD agar), Cronobacter sakasakii E71 (chromogenic agar) or Klebsiella pneumonia K2 (Simons citrate inositol agar). For every NDO and for the control also a pathogen free culture was prepared.
The experiment was started, and pH setpoint was either 5.5 (facial inoculum from infant 1, vaginally born, breast fed) or pH 6.0 (Inoculum from infant 2, vaginally born, breast fed) with continuous pH regulation, and temperature 37° C., humidity 85%, OD control. At 4, 8 and 24 hours a sample is taken for CFU determination on TOS-propionate MUP agar (total Bifidobacteria), XLD agar for Salmonella enteriditis S29, and Simons citrate inositol agar for Klebsiella pneumonia K2 and for SCFA, D- and L Lactate and ammonia analysis. Fecal pellet was used for 16s DNA sequencing. For both inocula the extent of fermentation, as measured by NaOH consumption, i.e. acid production, was highest with the combination of 3′-GU2′-FL, when compared to 3′-GL or 2′-FL alone. The rate of initial acidification was high for 3′-GL and for 3′-GL/2′-FL. […] As the amount of carbohydrates that can be fermented is the same in the reaction vessels, the higher total acidification with the combination is indicative for an unexpected, synergistic effect of the combination of 2′-FL and 3′-GL. […]

Another assay has as its system Caco-2 cell monolayer. Nature of the assay: DON-induced impairment of Caco-2 cell monolayer integrity (TEER, lucifer yellow flux). Format: cell-based, human. The protocol:
Caco-2 cells were used according to established methods. In brief: cells were cultured in Dulbecco's modified Eagle medium (DMEM) and seeded at a density of 0.3×10^5 cells into 0.3 cm^2 high pore density (0.4 μm) inserts with a polyethylene terephthalate membrane (BD Biosciences, Franklin Lakes, N.J., USA) placed in a 24-well plate. The Caco-2 cells were maintained in a humidified atmosphere of 95 air and 5% CO2 at 37° C.
Caco-2 cell monolayers were thus grown in a transwell system, which is a model for intestinal barrier function. The monolayers were pretreated for 24 h with different GLs, including beta3′-GL, alpha3′-GL, beta4′-GL and beta6′-GL in a concentration of 0.75 wt. % of the GL, before being exposed to the fungal toxin deoxynivalenol (DON), which is a trigger and model compound to impair intestinal barrier. DON was diluted to a final concentration of 4.2 μM in complete cell medium and added to the apical side as well as to the basolateral side of the transwell inserts. […] Incubation with DON was 24 h.
Measurements of the transepithelial electrical resistance (TEER) and lucifer yellow (LY) permeability were conducted to investigate barrier integrity. For TEER measurements a Millicel-ERS voltohmmeter connected to a pair of chopsticks electrodes was used to measure the TEER values. Results are expressed as a percentage of the initial value. For paracellular tracer flux assay the membrane impermeable lucifer yellow (LY) (Sigma, St Louis, Mo., USA) was added in a concentration of 16 μg/ml to the apical compartment in the transwell plate for 4 h, and the paracellular flux was determined by measuring the fluorescence intensity in the basolateral compartment with a spectrophotofluorimeter (FLUOstar Optima, BMG Labtech, Offenburg, Germany) set at excitation and emission wavelengths of 410 and 520 nm, respectively. Release of interleukin-8 (IL-8 or CXCL8), which is a typical marker for inflammation, was quantified in the medium of the apical side and the basolateral side of the Caco-2 transwell inserts in response to the treatments. CXCL8 concentrations were measured by using the human IL-8 ELISA assay (BD Biosciences, Pharmingem, San Diego, Calif., USA) according to manufacturer's instructions. For more details on materials and methods see Akbari et al, 2016, Eur J Nutr. 56(5):1919-1930.

Assay [2] concerns human peripheral blood mononuclear cells (PBMC). Nature of the assay: PBMC cytokine levels, CD3/CD28 stimulated condition. The assay is classed as cell-based. To be noted: for Relative level of CCL17, observed / Relative level of IL-4, observed / Relative level of IL-13, observed: blanc = 1, 0.2 wt % 2′-FL, 0.1 wt % 3′-GL, mean. The protocol:
Isolation of PBMC from healthy donors: Human peripheral blood mononuclear cells (PBMC) from healthy donors were isolated from buffy coats (Sanquin, Amsterdam, the Netherlands). PBMC were obtained by centrifugation using Leucosep tubes (Greiner Bio-One). PBMC were collected and washed in PBS (Gibco, Thermo Fisher Technologies)+2% heat-inactivated FCS (Invitrogen), followed by hypotonic lysis of erythrocytes with sterile lysis buffer (0.15 M NH4Cl, 0.01 M KHCO3 and 0.1 mM EDTA, pH of 7.4 at 4° C., all from Merck, Darmstadt, Germany). After lysis, the PBMC were resuspended in freezing medium (70% RPMI 1640 medium (Gibco, Thermo Fisher Technologies) supplemented with 10% heat-inactivated FCS and 100 U/ml penicillin-streptomycin, 20% heat-inactivated FCS and 10% DMSO (Sigma)) and cryopreserved.
PBMC activation model: PBMC (0.2.10^6 cell/well) were cultured in 96-well flat bottom plates (Corning). For 24 hours the cells were pre-incubated with 2′-FL (Jennewein), 3′-GL (0-0.3% w/v; Carbosynth) or sodium butyrate (0.2 mM; Sigma Aldrich) and combinations thereof. Subsequently, the cells were CD3/CD28-activated (Pelicluster CD3 and Pelicluster CD28, Sanquin) for an additional 24 hours. After incubation, IFNγ was measured by ELISA in the supernatants (see below). To determine cell activity after stimulation, PBMC were incubated with cell proliferation reagent WST-1 (10 μl; Roche) and/or 10% Triton (5 μl; negative control). After 3 hours, absorbance was measured at OD450 nm and OD650 nm and cell activity was calculated according to manufacturer's instructions.
Cytokine production of PBMC: PBMC were incubated with indicated reagents. After incubation, the supernatants were collected and IL2, IL6, IL10, IL13, IL21, TNFα, IFNγ, MIF, CCL1, CCL13, CCL17, CCL20, CCL22 and CXCL8-11 levels were measured by conducting a validated multiplex immunoassay based on Luminex technology (xMAP, Luminex Austin Tex. USA). Acquisition was conducted with the Biorad FlexMAP3D (Biorad laboratories, Hercules USA) in combination with xPONENT software version 4.2 (Luminex). Data was analyzed by 5-parametric curve fitting using Bio-Plex Manager software, version 6.1.1 (Biorad).
After PBMC stimulation, cell culture supernatants were collected, after which cytokine responses were measured in order to test immune responsiveness of the cells. […] In addition, since each donor is reacting in its own efficiency onto the T cell stimulus, we calculated the individual index of cytokine response by dividing the intervention induced response by the basal stimulated response.
Subsequently, in order to test the direct effect of specific compounds on PBMC activity, the cells were activated with CD3/CD28 for 24 hours after a pre-incubated for 24 h with either 2′-FL, 3′-GL and combinations thereof. In addition, since each donor is reacting in its own efficiency onto the T cell stimulus, the individual index of cytokine response was calculated by dividing the intervention induced response by the basal stimulated response (the blanc is set at 1). In this way the intervention within 10 different donors has been studied.

Setting [3] is: DON 4.2 μM with 2′-FL 1 mg/ml, mean.

Turning to `C[C@@H]1O[C@@H](O[C@H]2[C@H](O[C@H]3[C@H](O)[C@@H](O)C(O)O[C@@H]3CO)O[C@H](CO)[C@H](O)[C@@H]2O)[C@@H](O)[C@H](O)[C@@H]1O` (stereo partly drawn) [2′-FL, α-L-Fuc-(1→2)-β-D-Gal-(1→4)-D-Glc], in assay [1] (inoculum of baby 1), the “Salmonella growth” value is given as “most restricted”. The “Salmonella growth” value in assay [1] (inoculum of baby 2) was “most restricted”. Further, in the assay on Caco-2 cell monolayer (2′-FL 1 mg/ml), the “effect on DON induced reduction in TEER and increase in LYF” value is “statistically significantly prevent the DON induced reduction in TEER and increase in LYF”. Further, in the assay with Caco-2 cell monolayer (setting [3]), the Lucifer yellow flux is 446.4 ng/ml (cm^2 × h) and the “TEER (% of initial value)” value is recorded as 42.79 % of initial value. For the same molecule, in assay [2], the “CCL17 levels” value is “no significant effect on CCL17 levels”; the “levels of IL-4 and IL-13 compared to control” value was “had no effect on the levels of IL-4 and IL-13”; the “Relative level of CCL17, observed” value came out at 1.061; the “Relative level of IL-4, observed” value was 0.9887. The “Relative level of IL-13, observed” value in assay [2] came to 1.039.

With “Gal (beta 1-3)-Gal (beta 1-4)-Glc [3′-GL]”, the “effect on DON-induced loss of epithelial barrier integrity (TEER, LY flux)” value with Caco-2 cell monolayer (24 h pretreatment with 0.75 wt. % GL, then DON 4.2 μM 24 h, FIGS. 1A-D) is on record as “prevented the DON-induced loss of epithelial barrier integrity”. Besides, in assay [2], the “CCL17 levels” value is recorded as “no significant effect on CCL17 levels”; the “levels of IL-4 and IL-13 compared to control” value is listed as “a decrease was detected”; the “Relative level of CCL17, observed” value is 0.6212; the “Relative level of IL-4, observed” value amounted to 0.5825. Moreover, the “Relative level of IL-13, observed” value in assay [2] is given as 0.5472.
